Key:
[1] = test system: Caenorhabditis elegans; assay: Initial HTS Run (mOD, % Run, visual score); design: key to Initial HTS Run Visual Score: Dead: only stiff L1s (no movement); Dead (L4): worms are dead, but at a later larval stage; majority of worms are L1 (based on size); majority of worms are L2 (based on size); majority of worms are L3 (based on size); majority of worms are L4 (based on size); AD: majority of worms are adult; #AD: 5 adult worms or less; B!: sterile (0-25 progeny); B: low broodsize (25-100 progeny); ˜B: moderate broodsize (100-250 progeny); <: reduced broodsize (250-500 progeny); OK: no effect (˜1000+ progeny); conditions: in vivo
Experimental: (§1) The nematicidal activity of anthelmintic Compositions 48-68 were determined in accordance with the procedure outlined in Example 2.

[2] = test system: Caenorhabditis elegans; assay: C. elegans L1 nematicidal dose response, 5 day visual viability score (3-fold dilutions); type: in vivo; design: key: Dead: only stiff L1s (no movement); Dead (L4): worms are dead, but at a later larval stage; majority of worms are L1 (based on size); majority of worms are L2 (based on size); majority of worms are L3 (based on size); majority of worms are L4 (based on size); AD: majority of worms are adult; #AD: 5 adult worms or less; B!: sterile (0-25 progeny); B: low broodsize (25-100 progeny); ˜B: moderate broodsize (100-250 progeny); <: reduced broodsize (250-500 progeny); OK: no effect (˜1000+ progeny); conditions: for 5 Day Visual Score V6: 0.3 μM; for 5 Day Visual Score V5: 0.9 μM; for 5 Day Visual Score V4: 2.6 μM; for 5 Day Visual Score V3: 7.8 μM; for 5 Day Visual Score V2: 23.3 μM; for 5 Day Visual Score V1: 70 μM
Experimental: Caenorhabditis elegans adults were grown on Nematode Growth Medium (NGM) until they produced eggs, then the adults were removed.
The eggs were allowed to hatch, and the L1 larvae collected. See The Nematode Caenorhabditis elegans (1988) Cold Spring Harbor Laboratory Press. Using a Matrix Programmable Pipette, the L1s were distributed into 96-well tissue culture plates, 20 L1 in 50 μl NGM per well. Antibiotic/Antimyotic was added to each well, and 1% by weight E. coli strain HB101. The subject anthelmintic compounds were stored at 5 mM in 100% DMSO. 0.7 μl of compounds 1-31 were added to the left-most column of wells to yield a final concentration of 70 μM in 1.4% DMSO, with 1.4% DMSO only as the control. The compounds were then subjected to 5 more 3-fold dilutions from left to right to yield 6 column concentrations of 70 μM, 23.3 μM, 7.8 μM, 2.6 μM, 0.9 μM, and 0.3 μM. Plates were stored in air-tight Rubbermaid plastic boxes at 20° C. The nematodes had cleared all control wells by day 4, and nematode viability was scored by visual examination under a 100× dissecting microscope on day 5. A visual viability scoring system was used as follows:
Column VI has a compound concentration of 70 μM with sequential 3-fold dilutions reported in columns V2, V3, V4, V5, and V6, respectively, such that the V6 concentration was 0.3 μM.
as §1

[3] = test system: Caenorhabditis elegans; assay: Follow-up HTS Run (mOD, % Run, visual score); design: key to Follow-up HTS Run Visual Score: Dead: only stiff L1s (no movement); Dead (L4): worms are dead, but at a later larval stage; majority of worms are L1 (based on size); majority of worms are L2 (based on size); majority of worms are L3 (based on size); majority of worms are L4 (based on size); AD: majority of worms are adult; #AD: 5 adult worms or less; B!: sterile (0-25 progeny); B: low broodsize (25-100 progeny); ˜B: moderate broodsize (100-250 progeny); <: reduced broodsize (250-500 progeny); OK: no effect (˜1000+ progeny); conditions: in vivo
Experimental: as §1

[4] = test system: root-knot nematode, Meloidogyne incognita; conditions: in vivo; cited from earlier work
[5] = Table 3, procedure of Example 2

## CC(=O)Nc1ccc(S(=O)(=O)N2CCN(C(=O)c3cc(C(F)(F)F)cc(C(F)(F)F)c3)CC2C(=O)NCc2ccccc2)cc1 (stereo not drawn) [AKC 163]
[1]
  Initial HTS Run % Run: 119%
  Initial HTS Run Visual Score: L2/L3(DEAD)
  Initial HTS Run mOD: 146 mOD
[2]; [5]
  5 Day Visual Score V6: OK (no effect (˜1000+ progeny))
  5 Day Visual Score V5: OK (no effect (˜1000+ progeny))
  5 Day Visual Score V4: OK (no effect (˜1000+ progeny))
  5 Day Visual Score V3: OK (no effect (˜1000+ progeny))
  5 Day Visual Score V2: < (reduced broodsize (250-500 progeny))
[3]
  Follow-up HTS Run % Run: 136%
  Follow-up HTS Run mOD: 219 mOD

## CCCCCCCCS(=O)(=O)N1CCN(C(=O)c2cc(C(F)(F)F)cc(C(F)(F)F)c2)CC1C(=O)NCc1ccccc1 (stereo not drawn) [AKC 165]
[1]
  Initial HTS Run % Run: 115%
  Initial HTS Run mOD: 142 mOD
[2]; [5]
  5 Day Visual Score V6: OK (no effect (˜1000+ progeny))
  5 Day Visual Score V5: OK (no effect (˜1000+ progeny))
  5 Day Visual Score V4: OK (no effect (˜1000+ progeny))
  5 Day Visual Score V3: < (reduced broodsize (250-500 progeny))
[3]
  Follow-up HTS Run % Run: 126%
  Follow-up HTS Run Visual Score: Dead
  Follow-up HTS Run mOD: 203 mOD

## COc1ccc(CC(=O)N2CCN(S(=O)(=O)c3ccc(OC)c(OC)c3)C(C(=O)NCc3cc(C(F)(F)F)cc(C(F)(F)F)c3)C2)cc1OC (stereo not drawn) [AKC 168]
[1]
  Initial HTS Run % Run: 90%
  Initial HTS Run Visual Score: 5AD/B
  Initial HTS Run mOD: 111 mOD
[2]; [5]
  5 Day Visual Score V6: OK (no effect (˜1000+ progeny))
  5 Day Visual Score V5: OK (no effect (˜1000+ progeny))
  5 Day Visual Score V4: OK (no effect (˜1000+ progeny))
  5 Day Visual Score V3: OK (no effect (˜1000+ progeny))
  5 Day Visual Score V2: OK (no effect (˜1000+ progeny))
  5 Day Visual Score V1: L3/#AD/B!
[3]
  Follow-up HTS Run % Run: 135%
  Follow-up HTS Run Visual Score: 3AD/˜B
  Follow-up HTS Run mOD: 217 mOD

## Cc1cccc2scc(CC(=O)Nc3nc(C(C)(C)C)cs3)c12 [AKC 170]
[1]
  Initial HTS Run % Run: 111%
  Initial HTS Run Visual Score: L3
  Initial HTS Run mOD: 136 mOD
[2]; [5]
  5 Day Visual Score V6: OK (no effect (˜1000+ progeny))
  5 Day Visual Score V5: OK (no effect (˜1000+ progeny))
  5 Day Visual Score V4: OK (no effect (˜1000+ progeny))
  5 Day Visual Score V3: OK (no effect (˜1000+ progeny))
  5 Day Visual Score V2: #AD/
  5 Day Visual Score V1: L2
[3]
  Follow-up HTS Run % Run: 139%
  Follow-up HTS Run Visual Score: L4/AD/B!
  Follow-up HTS Run mOD: 223 mOD

## CCCCCCCCS(=O)(=O)N1CCN(C(=O)C=Cc2cccc(C(F)(F)F)c2)CC1C(=O)NCc1ccc(C(F)(F)F)cc1 (stereo not drawn) [AKC 171]
[1]
  Initial HTS Run % Run: 101%
  Initial HTS Run mOD: 124 mOD
[2]; scored day 5
  5 Day Visual Score V3: Dead(L4)/#A
  5 Day Visual Score V2: L2
  5 Day Visual Score V1: Dead
[2]; [5]
  5 Day Visual Score V3: Dead
  5 Day Visual Score V2: L2
  5 Day Visual Score V1: Dead
[3]
  Follow-up HTS Run % Run: 111%
  Follow-up HTS Run Visual Score: Dead
  Follow-up HTS Run mOD: 179 mOD

## CCCCCCCCS(=O)(=O)N1CCN(C(=O)C=Cc2cccc(C(F)(F)F)c2)CC1C(=O)NCc1ccccc1C(F)(F)F (stereo not drawn) [AKC 173]
[1]
  Initial HTS Run % Run: 98%
  Initial HTS Run mOD: 120 mOD
[2]; [5]
  5 Day Visual Score V6: OK (no effect (˜1000+ progeny))
  5 Day Visual Score V5: OK (no effect (˜1000+ progeny))
  5 Day Visual Score V4: OK (no effect (˜1000+ progeny))
  5 Day Visual Score V3: OK (no effect (˜1000+ progeny))
[3]
  Follow-up HTS Run % Run: 107%
  Follow-up HTS Run mOD: 172 mOD

## CC(C)(C)c1csc(NC(=O)CC2CCCc3ccccc32)n1 (stereo not drawn) [AKC 175]
[1]
  Initial HTS Run % Run: 85%
  Initial HTS Run Visual Score: L4/AD/B
  Initial HTS Run mOD: 104 mOD
[2]; [5]
  5 Day Visual Score V6: OK (no effect (˜1000+ progeny))
  5 Day Visual Score V5: OK (no effect (˜1000+ progeny))
  5 Day Visual Score V4: OK (no effect (˜1000+ progeny))
  5 Day Visual Score V3: OK (no effect (˜1000+ progeny))
  5 Day Visual Score V2: OK (no effect (˜1000+ progeny))
  5 Day Visual Score V1: < (reduced broodsize (250-500 progeny))
[3]
  Follow-up HTS Run % Run: 99%
  Follow-up HTS Run Visual Score: L4/AD/B!
  Follow-up HTS Run mOD: 159 mOD

## CC[C@H](C)[C@H]1O[C@]2(CC(O)[C@@H]1C)C[C@@H]1C[C@@H](C/C=C(\C)[C@@H](OC3CC(OC)C(OC4CC(OC)C(O)C(C)O4)C(C)O3)[C@@H](C)/C=C/C=C3\CO[C@@H]4[C@H](O)C(C)=C[C@@H](C(=O)O1)[C@]34O)O2 (stereo partly drawn) [Avermectin B2a]
[4]
  activity against the root-knot nematode: active

— patent publication US20020016330A1, “Materials and methods for killing nematodes and nematode eggs” (priority 2000, published 2002)
